Data taken from BindingDB's records for doi:10.1016/s0960-894x(98)00417-x (Affymax Research Institute, 1999).
pIC50, pKi: −log10 of the molar value.

Experiments:
[1] = molecular target: Mannose-6-phosphate isomerase (Candida albicans) (UniProt P34948); assay: Compound was evaluated for the inhibition constant against phosphomannose isomerase enzyme of Candida albicans (CaPMI)
[2] = molecular target: Mannose-6-phosphate isomerase (Candida albicans) (UniProt P34948); assay: Compound was tested for percentage inhibition of phosphomannose isomerase enzyme of Candida albicans (CaPMI).

Chain of Mannose-6-phosphate isomerase (Candida albicans) (P34948 whole entry, looked up): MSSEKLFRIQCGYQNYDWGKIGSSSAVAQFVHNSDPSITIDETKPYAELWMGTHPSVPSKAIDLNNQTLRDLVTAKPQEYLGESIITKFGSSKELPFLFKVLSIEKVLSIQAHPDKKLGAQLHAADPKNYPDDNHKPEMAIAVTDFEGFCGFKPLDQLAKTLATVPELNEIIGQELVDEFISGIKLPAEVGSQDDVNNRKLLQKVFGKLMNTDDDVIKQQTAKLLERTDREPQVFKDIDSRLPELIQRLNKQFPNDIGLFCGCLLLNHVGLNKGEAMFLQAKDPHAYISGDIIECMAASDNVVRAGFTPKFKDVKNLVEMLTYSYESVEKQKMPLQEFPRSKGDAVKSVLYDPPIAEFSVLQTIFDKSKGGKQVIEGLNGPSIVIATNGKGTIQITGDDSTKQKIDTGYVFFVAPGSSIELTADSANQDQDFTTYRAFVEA

NC(=O)C1(NC(=O)CCCOc2ccc(Cl)cc2Cl)Cc2ccccc2C1 [2-[4-(2,4-Dichloro-phenoxy)-butyrylamino]-indan-2-carboxylic acid amide]
pKi [1]: 5.40

O=C(CCCSc1ccc(Cl)c(Cl)c1)NC1(C(=O)NO)Cc2ccccc2C1 [2-[4-(3,4-Dichloro-phenylsulfanyl)-butyrylamino]-indan-2-carboxylic acid hydroxyamide]
pIC50 [2]: 5.22 | pKi [1]: 5.40
